Measured values published in patent US9220794B2, “Two-photon fluorescent probes for imaging of total sulfide in live cell and tissue, and quantitative estimation of total sulfide concentration using the same” (Korea University Research and Business Foundation, priority 2013, dated 2015).
One block for each molecule: values may come before it.

Key:
[1] = One-photon absorption and emission spectra, fluorescence quantum yield; format: physicochemical; conditions: for 10^−4 ε: value is ε×10^−4
Procedure: The solvatochromic effect observed for the compound of [Chemical Formula 2-6] may have resulted from the […] dipole moment.
Absorption spectra were recorded on the Hewlett-Packard 8453 diode array spectrophotometer and fluorescence spectra were obtained with the Amico-Bowman series 2 luminescence spectrometer with a 1-cm standard quartz cell.

[2] = Measurement of two-photon cross section (fs fluorescence technique, rhodamine 6G reference); format: physicochemical; conditions: for Φδmax, two-photon action cross section: uncertainty ±15%
Procedure: Two-photon cross section (δ) was determined using a femtosecond (fs) fluorescence measurement technique.
The compound of [Chemical Formula 2-5] and the compound of [Chemical Formula 2-6] were dissolved in 20 mM HEPES buffer (pH 7.2) and 3.0×10^−6 M HEPES/EtOH (1/1) and then two-photon induced fluorescence intensity was measured at 740-940 nm using rhodamine 6G as a reference, whose two-photon property has been well characterized. The two-photon fluorescence intensities of the reference and the compound of [Chemical Formula 2-6] and the compound of [Chemical Formula 2-5] were determined.
The two-photon cross section was calculated from δ=δr(Ssφrφrcr)/(Srφsφscs). In the equation, the subscripts s and r stand for the sample, i.e., the compound of [Chemical Formula 2-6] and the compound of […], respectively. S denotes the intensity of the signal collected using a CCD detector, φ is the fluorescence quantum yield (measured using coumarin 307 and rhodamine B according to the literature), […] fluorescence collection efficiency, and c is the number density of molecules in solution. δr is the two-photon cross section of the reference molecule.

HeLa cells [3] = assay: Two-photon excited fluorescence spectra of labeled HeLa cells; format: cell-based, human
Procedure: Accordingly, it can be seen that HEPES/EtOH (1/1) has polarity similar to that of the cellular environment.
This confirms again that HEPES/EtOH (1/1) is a good model of the cellular environment and HS^− can be detected by TPM using the compound of [Chemical Formula 2-6].
HeLa human cervical carcinoma cells were acquired from the ATCC (Manassas, Va., USA). The cells were cultured in DMEM (WelGene, Inc., Seoul, Korea) supplemented with heat-inactivated 10% FBS (WelGene), penicillin (100 units/mL) and streptomycin ([…]).
For labeling, the growth medium was removed and replaced with DMEM without FBS. The cells were incubated with the compound of [Chemical Formula 2-6] ([…]) for 30 minutes, washed 3 times with FBS-free DMEM and imaged.
The TPM images were obtained with the DM IRE2 microscope (Leica) by exciting the probes with a mode-locked titanium-sapphire laser source (Coherent Chameleon, 90 MHz, 200 fs) set at a wavelength of 750 nm and an output power of 1380 mW, which corresponded to an average power of approximately 2 mW in the focal plane.

[4] = pH sensitivity of the fluorescence; format: physicochemical; conditions: biologically relevant pH range
rat colon tissue [5] = assay: Ratiometric TPM imaging (F2/F1) of rat colon slices; format: in vivo; conditions: rats given 5-FU 150 mg/kg i.p., 8 hours, probe 2-6
Procedure: The utility of the compound of [Chemical Formula 2-6] was investigated in living tissues from a 5-week-old rat colon. The inventors were particularly interested in the mucosa, muscularis mucosae and submucosa because they are invaded in the early stage of tumor (FIG. 4c). Since it takes a long time to stain the tissues during which they may be deformed, excess amount (20 μM) of the compound of [Chemical Formula 2-6] was used to facilitate staining.
Because the structure of the colon tissue is heterogeneous, TPEF intensities were acquired from 150 sections along the z-direction at a depth of about 90-170 μm using two detection windows (1 and 2) to visualize the overall sulfide distribution.
Therefore, the sections were divided into two regions and they were assigned as mucosa (90-150 μm) and submucosa including the muscularis mucosae (151-170 μm).
(§1) Male Sprague-Dawley rats (235-265 g) were divided into two groups (5-FU and control groups). In the 5-FU group, 150 mg/kg of 5-FU (SoloPak Laboratories, Franklin Park, Ill.) were intraperitoneally injected into the rats. The rats of the control group were injected with saline. Each group consisted of 4 rats.
All the rats were injected between 9 pm and 12 midnight, were allowed free access to food and water and were housed in the same room with 8-hour cycles.
(§2) 8 hours after the intraperitoneal injection, all the rats were sacrificed. Laparotomy was performed after anesthetizing the rats.
Slices were prepared from the colon of the rats. The colon slices were cut into 2-cm long segments, opened by longitudinal incision and then treated with Dulbecco's phosphate-buffered saline (D-PBS; […]).
The colon slices were incubated with the compound of [Chemical Formula 2-6] (20 μM) in D-PBS bubbled with 95% O2 and 5% CO2 at 37° C. The colon slices were then moved to glass-bottomed dishes, washed 3 times with D-PBS and observed under a confocal multiphoton microscope.
TPEF intensities were collected using detection windows of 390-450 nm and 520-650 nm, with 110 sections at a depth of 90-150 μm (mucosa) and 40 sections at a depth of 151-170 μm (submucosa).
Then ratiometric images were constructed from the TPEF intensities collected using the two detection window. The F2/F1 ratio was expressed as mean±SD and p was set to be smaller than 0.05.

rat colon tissue [6] = assay: Kinetic measurement of total sulfide in rat colon tissue slices; format: in vivo; conditions: probe 2-6; for kobs in colon tissue: after 5-FU 150 mg/kg i.p., 8 hours; for total sulfide concentration in colon tissue: after 5-FU treatment
Procedure: To quantitatively estimate the total sulfide concentration, kinetic experiments were performed in the colon tissue labeled with the compound of [Chemical Formula 2-6].
as §1, §2
Kinetic experiments in rat colon tissue were performed using four colon slices obtained from four rats. Two sets of experiments were performed for each slice. In each set, TPEF intensities from 8 ROI's/section were collected at depths of 90-150 μm (mucosa) and 151-170 μm (submucosa) in the colon tissue labeled with the compound of [Chemical Formula 2-6] and averaged.
The rate constant (kobs) was measured from 7 and 3 sections of the mucosa and submucosa tissues, respectively, in order to obtain 112 kobs and 48 kobs values, respectively. The rate constant (kobs) was expressed as mean±SD and p was set to be smaller than 0.05.

HeLa cells [7] = assay: Kinetic estimation of total sulfide concentration in HeLa cells (TPEF); format: cell-based, human
Procedure: To quantitatively estimate the total sulfide concentration in living cells, the TPEF intensity of HeLa cells labeled with the compound of [Chemical Formula 2-6] was monitored in the absence and presence of Na2S, cysteine (Cys) and glutathione (GSH) with 20-30 minute intervals.
Since H2S and HS^− are in equilibrium and [H2S]/[HS^−]=[H^+]/Ka=0.794 in HEPES/EtOH (1/1, pH=7.2), it seems appropriate to present the total sulfide concentration ([H2S]+[HS^−]).
Kinetic experiments in HeLa cells were conducted in the same manner except that TPEF intensities from HeLa cells labeled with the compound of [Chemical Formula 2-6] upon excitation at 750 nm were monitored with 20-30 minute intervals.
The average TPEF intensities at given time and the SB2/SA1 ratio was obtained by dividing the TPEF intensity of [Chemical Formula 2-6] at 390-450 nm by that of [Chemical Formula 2-5] at 525-650 nm in the HeLa cells (FIG. 1b) were used in the kobs calculation.
The kobs value was measured at 10 regions of interest (ROIs) from three independent cell lines.
To evaluate the effect of Na2S, cysteine and GSH, HeLa cells were incubated with the compound of [Chemical Formula 2-6] (2 μM) and then treated with Na2S (100, 300 μM), cysteine (500 μM) and GSH (500 μM) for 30 minutes. The cells were then washed 3 times with FBS-free DMEM and subjected to kinetic measurement.

physchem = conditions: pH 7.2
Procedure: The pKa value of H2S in HEPES/EtOH (1/1, pH 7.2) was estimated by using the following equations. HS^−+H2O⇄H2S+HO^− K1=[H2S][HO^−]/[HS^−] (1) H2O⇄H^++HO^− Kw=[H^+][HO^−] (2) H2S⇄H^++HS^− Ka=[H^+][HS^−]/[H2S]=Kw/K1 (3)
First, the pH of the solution containing 10.0 mM NaSH was measured in H2O/EtOH (1/1) at 37.0° C. using a pH meter.
The K1 value was calculated from the equation (1) using [HS^−]o=10.0 mM and pH=9.00.
The pKa value of H2S in HEPES/EtOH (1/1, pH 7.2) was then calculated from the equation (3) using K1=1.00×10^−8M and pKw=15.10 reported in H2O/EtOH (1/1).

[8] = HEPES buffer (20 mM HEPES, 100 mM KCl, pH 7.4)
[9] = cells treated with 500 μM additive, probe 2-6

Δλ^FImax, shift of emission spectrum with solvent polarity ([1]; 1,4-dioxane<DMF<EtOH<HEPES/EtOH (1/1)<HEPES buffer): 95 nm
Φ, fluorescence quantum yield ([1]; EtOH): 0.87
λ^(1)max, one-photon absorption maximum ([1]; EtOH): 381 nm
λ^flmax, one-photon emission maximum ([1]; EtOH): 498 nm
10^−4 ε ([1]; EtOH): (4.81) M^−1cm^−1
Φ, fluorescence quantum yield ([1]; HEPES buffer): 0.46
λ^(1)max, one-photon absorption maximum [1, 8]: 363 nm
λ^flmax, one-photon emission maximum [1, 8]: 548 nm
ε at maximum absorption ([1]; HEPES buffer, pH 7.4): 39100 M⁻¹ cm⁻¹
Φ, fluorescence quantum yield ([1]; HEPES/EtOH (1/1)): 0.81
λ^(1)max, one-photon absorption maximum ([1]; HEPES/EtOH (1/1)): 368 nm
λ^flmax, one-photon emission maximum ([1]; HEPES/EtOH (1/1)): 530 nm
10^−4 ε ([1]; HEPES/EtOH (1/1)): (4.77) M^−1cm^−1
10^−4 ε ([1]; HEPES): (3.91) M^−1cm^−1
λ^(2)max, two-photon maximum ([2]; HEPES): 750 nm
Φδmax, two-photon action cross section ([2]; HEPES buffer, 2-6 at 740 nm, 2-5 at 750 nm): 52 GM
λ^(2)max, two-photon maximum ([2]; HEPES/EtOH (1/1)): 750 nm
increase of action cross section (φδ) in HEPES/EtOH (1/1) versus HEPES buffer ([2]; HEPES/EtOH (1/1) vs HEPES buffer): about 2 fold
Φδmax, two-photon action cross section ([2]; HEPES/EtOH (1/1), GM = 10^−50 cm^4s/photon): 94 GM
λ^flmax, maximum emission in cells (HeLa cells [3]): 520 nm
pH sensitivity [4]: pH-insensitive
SMILES: COCCOCCC1(CCOCCOC)c2cc(N)ccc2-c2ccc(-c3nc4ccccc4s3)cc21 [Chemical Formula 2-5]

SMILES: O=c1[nH]cc(F)c(=O)[nH]1 [5-fluorouracil, reference compound]
emission ratio F2/F1 (rat colon tissue [5]; mucosal layer): 0.98±0.07
emission ratio F2/F1 (rat colon tissue [5]; submucosa): 0.84±0.05
kobs in colon tissue (rat colon tissue [6]; mucosa): (4.0±0.7)×10^−5 s^−1
total sulfide concentration in colon tissue (rat colon tissue [6]; mucosa): 14 ± 3 µM
kobs in colon tissue (rat colon tissue [6]; submucosa): (2.3±0.6)×10^−5 s^−1
total sulfide concentration in colon tissue (rat colon tissue [6]; submucosa): 7.9 ± 2.2 µM

SMILES: [Na+].[Na+].[S-2] [Na2S]
kobs in labeled HeLa cells (HeLa cells [7]; cells pretreated with 100 μM Na2S, probe 2-6): (2.6±0.9)×10^−6 s^−1
total sulfide concentration ([H2S]+[HS^−]) in HeLa cells (HeLa cells [7]; cells pretreated with 100 μM Na2S, from kobs, k2=5.17 M^−1s^−1, [H2S]/[HS^−]=0.794): 0.90 ± 0.32 µM
kobs in labeled HeLa cells (HeLa cells [7]; cells pretreated with 300 μM Na2S, probe 2-6): (7.9±1.9)×10^−6 s^−1
total sulfide concentration ([H2S]+[HS^−]) in HeLa cells (HeLa cells [7]; cells pretreated with 300 μM Na2S, from kobs, k2=5.17 M^−1s^−1, [H2S]/[HS^−]=0.794): 2.7 ± 0.7 µM

SMILES: N[C@@H](CS)C(=O)O [Cys, cysteine]
kobs in labeled HeLa cells (HeLa cells [7]; [9]): (1.4±0.7)×10^−6 s^−1
total sulfide concentration ([H2S]+[HS^−]) in HeLa cells (HeLa cells [7]; [9]): 0.50 ± 0.23 µM

SMILES: S [H2S, Hydrogen sulfide]
pKa (physchem): 7.1

SMILES: N[C@@H](CCC(=O)N[C@@H](CS)C(=O)NCC(=O)O)C(=O)O [GSH, glutathione]
kobs in labeled HeLa cells (HeLa cells [7]; [9]): (6.3±1.8)×10^−6 s^−1
total sulfide concentration ([H2S]+[HS^−]) in HeLa cells (HeLa cells [7]; [9]): 2.2 ± 0.6 µM
